The source of these data is US10201499B2, “Nanoparticle formulation” (United Kingdom Research and Innovation, priority 2012, dated 2019).

The experiment concerns HT-29 cells. The settings on record: 5 mM; p<0.01 vs control. As to the method: FIG. 20. Mitochondrial calorimetry. HT-29 cells were treated with acetate (5 mM) or without (Control) and assessed for ATP production by the Seahorse assay in vitro.

Consider `CC(=O)O` [Acetate], for which the ATP production entry is “significantly increase”.
